Series [1] in a line: solubility in soybean oil. It is filed as physicochemical. The source says: The oil phase component used for preparing fat emulsions (or lipid emulsions) may be any of those conventionally used for preparing fat emulsions (or lipid emulsions), including vegetable oils such as soybean oil, cottonseed oil, synthetic triglycerides such as Panasate 800, Panasate 810 (trade name; manufactured by Nippon Yushi), squalene, eicosapentaenoic acid, azone, and the like. For preparing fat emulsions (or lipid emulsions), high solubility in these oil components is required for substance to be fat-emulsified (or lipid-emulsified). The compound of the present invention has a high solubility in these oil components, for example, 300 mg/ml or more in soybean oil at 40°C. The fat emulsions (or lipid emulsions) can be prepared by dissolving the compound of the present invention in soybean oil, Panasate, etc., adding lecithin to the solution, crude-emulsifying the mixture with a homomixer, etc., and then fine-emulsifying with a nanomizer under high pressure.

The test system of the next series is colon 26 cells. Description: anti-tumor activity of fat emulsion given intravenously to mice inoculated with colon 26 cells. The note with it: fat emulsions, 14 days, dose per day 50 mg/kg. Format: in vivo.
Series [2] concerns established cell line derived from mice. The note with it: at the same molar concentration, in vitro, versus 5-fluorouracil; cited from earlier work.
For series [3] the following is noted: versus 5-fluorouracil; cited from earlier work.

The text below walks through data of EP0588317A1 (priority 1992, dated 1994).

Read-outs that look alike come from different tables or passages of the source.

Broadly, the solubility is the dissolved amount per volume that the medium holds.

As to `CCCCC/C=C\C/C=C\CCCCCCCC(=O)OCn1c(=O)c(F)cn([C@H]2C[C@H](OC(C)=O)[C@@H](COC(C)=O)O2)c1=O` [Example 3, 3',5'-O-diacetyl-3-linolyloxymethyl-2'-deoxy-5-fluorouridine], the solubility in series [1] (soybean oil, 40 °C, oil or lipid; read-out: solubility of this compound in soybean oil) is over 300 mg/mL. As for `CCCCCCC(=O)OCn1c(=O)c(F)cn([C@H]2C[C@H](OC(=O)CCC)[C@@H](COC(=O)CCC)O2)c1=O` [Example 4], in series [1] (40 °C, oil or lipid; soybean oil; read-out: solubility of this compound in soybean oil), the solubility was over 300 mg/mL. The growth inhibiting activity result in the series with colon 26 cells (male mice inoculated with colon 26 cells in the inguinal region) was “more than 90%”. The body weight result with colon 26 cells (male mice inoculated with colon 26 cells) is recorded as “without decrease of body weight”. Turning to `CCCCC/C=C\C/C=C\CCCCCCCC(=O)OCn1c(=O)c(F)cn([C@H]2C[C@H](OC(=O)Oc3ccccc3)[C@@H](COC(=O)Oc3ccccc3)O2)c1=O` [Example 15, 3',5'-O-diphenoxycarbonyl-3-linolyloxymethyl-2'-deoxy-5-fluorouridine], in series [1], the “solubility of this compound in soybean” value stood at 150 mg/0.5 ml.

As for `CCCCC/C=C\C/C=C\CCCCCCCC(=O)OCn1c(=O)c(F)cn([C@H]2C[C@H](OC(=O)Oc3ccc(OC)cc3)[C@@H](COC(=O)Oc3ccc(OC)cc3)O2)c1=O` [Example 16, 3',5'-O-di(4-methoxyphenoxy-carbonyl)-3-linolyloxymethyl-2'-deoxy-5-fluorouridine], in series [1], the “solubility of this compound in soybean” value stood at 150 mg/0.5 ml. For the molecule `CCCCC/C=C\C/C=C\CCCCCCCC(=O)OCn1c(=O)c(F)cn([C@@H]2O[C@H](COC(=O)CCC)[C@@H](OC(=O)CCC)[C@H]2OC(=O)CCC)c1=O` [Example 19, 2',3',5'-O-tri-n-butyryl-3-linolyloxymethyl-5-fluorouridine], the “solubility of this compound in soybean oil” value in series [1] is over 300 mg/soybean oil 1 ml. The same measure, in the same setting: next, `CCCCCCC(=O)OCn1c(=O)c(F)cn([C@@H]2O[C@H](COC(=O)CCC)[C@@H](OC(=O)CCC)[C@H]2OC(=O)CCC)c1=O` [Example 20, 2',3',5'-O-tri-n-butyryl-3-n-heptanoyloxymethyl-5-fluorouridine]: over 300 mg/soybean oil 1 ml. With `O=c1[nH]c(=O)n([C@H]2C[C@H](O)[C@@H](CO)O2)cc1F` [FdUrd, 2'-Deoxy-5-fluorouridine], the “cancer inhibitory activity relative to 5-fluorouracil” value in series [2] is recorded as “more than 100 times”. In addition, the “in vivo advantage over 5-fluorouracil” value in series [3] is recorded as “no advantage over 5-fluorouracil”.
